The structures appear in SMILES notation.

Here are results for 47 molecules from the Deep4Chem optical property database.

The data set can be described thus: solvent given as SMILES.

`O=Cc1ccc(-c2ccc(-c3nc4ccccc4s3)c(O)c2)o1`: the emission maximum runs as follows: (in CCO) 530 nm; (in ClCCl) 526 nm; (in O) 563 nm.
With `COc1ccc(C#Cc2c3cc4ccccc4cc3c(C#C[Si](C(C)C)(C(C)C)C(C)C)c3cc4ccccc4cc23)cc1`, for the setting “in ClCCl”, the emission maximum worked out at 666 nm.
On to `O=c1c2ccccc2[nH]c2ccccc12`, for which the emission maximum is listed as 408 nm (in CS(C)=O) and 416 nm (in O).
Take `c1ccc2nc(-n3c4ccccc4c4ccccc43)c(-n3c4ccccc4c4ccccc43)nc2c1`: the emission maximum by setting is: (in C1CCOC1) 516.79 nm; (in CCCCCC) 467.18 nm; (in Cc1ccccc1) 503 nm.
`O=C(c1ccncc1)c1ccc(-n2c3ccc(-n4c5ccccc5c5ccccc54)cc3c3cc(-n4c5ccccc5c5ccccc54)ccc32)cc1` displayed an emission maximum (in C1CCOC1) of 532.75 nm, an emission maximum (in Cc1ccccc1) of 481.09 nm and an emission maximum (in c1cc(-c2cccc(-n3c4ccccc4c4ccccc43)c2)cc(-n2c3ccccc3c3ccccc32)c1) of 487.5 nm.
Take `CCCCOc1ccc(-c2oc3cc4n(c3c2-c2ccc(OCCCC)cc2)[B-](F)(F)[N+]2=Cc3cc5oc(-c6ccc(OCCCC)cc6)c(-c6ccc(OCCCC)cc6)c5n3[B-](F)(F)[N+]2=C4)cc1`: the emission maximum is listed as 638 nm (in C1CCOC1); 644 nm (in CN(C)C=O); 647 nm (in CS(C)=O); 641 nm (in Cc1ccccc1); 646 nm (in ClC(Cl)Cl); 646 nm (in ClCCl).
As to `CC(C)c1ccc2ccc3c(C(C)C)ccc4ccc1c2c43`, the emission maximum reads like this: (in CCCCCC) 380 nm; (in CO) 380 nm; (in ClCCl) 381 nm.
Consider `COC(=O)c1cc(=O)n(C)c2cc(-c3ccc(N(C)C)cc3)sc12`, for which the emission maximum reads like this: (in CC#N) 599 nm; (in ClCCl) 554 nm.
For the molecule `CC(C)(C)c1ccc2oc3nc4oc5ccc(N6c7ccccc7Sc7ccccc76)cc5c4cc3c2c1`, where the note is “in ClC(Cl)Cl”, the emission maximum was 371 nm.
The molecule `NC1=N/C(=N\c2ccccn2)c2cccc3cccc1c23` gave an emission maximum (in ClCCl) of 506 nm.
Regarding `c1cc2oc3cccc4oc5cccc6oc(c1)c2[c+](c34)c65`, under “in CC#N”, the emission maximum came out at 524 nm.
In the case of `COc1ccc(-c2ccc(-c3ccccc3)cc2)cc1`, for the setting “in C1CCCCC1”, the emission maximum is recorded as 353 nm.
Regarding `CC(C)(C)c1ccc2c(c1)c1cc(C(C)(C)C)ccc1n2-c1ccc(N(c2ccc(-c3ccc(-c4ccc(-c5ccc(-c6ccc(N(c7ccc(-n8c9ccc(C(C)(C)C)cc9c9cc(C(C)(C)C)ccc98)cc7)c7ccc(-n8c9ccc(C(C)(C)C)cc9c9cc(C(C)(C)C)ccc98)cc7)cc6)s5)c5nsnc45)s3)cc2)c2ccc(-n3c4ccc(C(C)(C)C)cc4c4cc(C(C)(C)C)ccc43)cc2)cc1`, the emission maximum (in ClCCl) was found to be 640 nm.
Under “in C1CCCCC1”, `N#Cc1cc(-c2ccccc2)c(N2c3ccccc3Oc3ccccc32)c(-c2ccccc2)c1` registered an emission maximum of 455 nm.
Under “in ClCCl”, `O=C(Nc1ccccc1[N+](=O)[O-])c1ccc2oc(-c3cc4ccccc4oc3=O)nc2c1` registered an emission maximum of 443 nm.
With `COc1ccc(OC)c(-c2[nH]c(=O)n3c2-c2ccccc2C3=O)c1`, the emission maximum reads like this: (in CC#N) 466 nm; (in CO) 484 nm; (in ClCCl) 462 nm.
`CC(C)(C)c1ccc(-c2nc3ccccc3nc2-c2cc(-c3nc4ccccc4nc3-c3ccc(C(C)(C)C)cc3)cc(-n3c4ccccc4c4ccccc43)c2)cc1` had an emission maximum (in Cc1ccccc1) of 437 nm.
In the case of `Cc1ccc(N2C(c3ccccc3NS(=O)(=O)c3ccc(C)cc3)=NC(c3ccccc3)C2c2ccccc2)cc1` (configuration not stated), the emission maximum (in Cc1ccccc1) was determined as 375 nm.
`N#Cc1c(N2CCCCC2)cc(-c2ccc3ccc4cccc5ccc2c3c45)c2c1C(=O)c1ccccc1-2` came in with an emission maximum (in C1CCOC1) of 473 nm.
For `CCCCCCCCc1ccc(-c2c3cc(-c4cc(CCCCCCCC)c(-c5ccc(-c6sc(/C=C7\SC(SCC)=NC7=O)cc6CCCCCCCC)s5)s4)sc3c(-c3ccc(CCCCCCCC)s3)c3cc(-c4cc(CCCCCCCC)c(-c5ccc(-c6sc(/C=C7\SC(SCC)=NC7=O)cc6CCCCCCCC)s5)s4)sc23)s1`, under “in ClC(Cl)Cl”, the emission maximum came out at 653 nm.
`CC[n+]1nc2ccc(N(C)C)cc2c2cc(C)ccc21` displayed an emission maximum (in O) of 542 nm.
The molecule `C#Cc1ccc2cc(/C=C/C(=O)OCC)c(=O)oc2c1` displayed an emission maximum (in CCO) of 412 nm.
`CCCCCCOc1cc(N(CC)CC)ccc1/C=C/C(=C(C#N)C#N)c1ccc2c(c1)c1ccccc1n2CC`: the emission maximum (in ClCCl) came to 583 nm.
In the case of `Cc1cccn2c1cc1c3ccccc3nc(-c3cccs3)c12`, where the note is “in CS(C)=O”, the emission maximum is on record as 514 nm.
Consider `c1ccc(-c2nc(-c3ccccc3)nc(-n3c4ccccc4c4cc(-n5c6ccccc6c6ccccc65)ccc43)n2)cc1`, for which the emission maximum runs as follows: (in C1CCOC1) 535.43 nm; (in Cc1ccccc1) 502.82 nm.
For the molecule `c1ccc(-c2ncc3ccccn23)cc1`, where the note is “in ClC(Cl)Cl”, the emission maximum worked out at 461 nm.
Molecule `CCCCCCCCCCCCN1C(=O)c2cccc3c(N(Cc4ccccn4)Cc4ccccn4)c4ccccc4c(c23)C1=O` registered an emission maximum (in C1CCOC1) of 583 nm; an emission maximum (in CCCCCC) of 555 nm; an emission maximum (in CCO) of 597 nm; an emission maximum (in Cc1ccccc1) of 573 nm; an emission maximum (in ClCCl) of 587 nm.
With `CC[n+]1c(C=C2C(=O)C(C=C3N(C)c4ccc(Cl)cc4C3(C)C)=C2[O-])[se]c2ccccc21`, the emission maximum is, setting by setting: (in CO) 662 nm; (in ClC(Cl)Cl) 677 nm.
`COc1ccc(-n2nc(C#N)c(N3CCCCC3)n2)cc1` showed an emission maximum (in CC#N) of 415 nm.
Molecule `N#CC=C(c1ccc(N2c3ccccc3Oc3ccccc32)cc1)c1ccc(N2c3ccccc3Oc3ccccc32)cc1` returned an emission maximum (in Cc1ccccc1) of 574 nm.
`C(=C\c1ncnc2ccccc12)/c1ccc(-c2ccc(N(c3ccccc3)c3ccccc3)cc2)cc1`: the emission maximum (in C1CCCCC1) stood at 461 nm; the emission maximum (in C1CCOC1) is 572 nm; the emission maximum (in CC#N) turned out to be 642 nm; the emission maximum (in CS(C)=O) is recorded as 641 nm; the emission maximum (in ClCCl) was determined as 610 nm.
Consider `CC(C)(C)c1ccc2c3c(c4ccc(C(C)(C)C)cc4c2c1)=[N+]1C(=C(c2ccccc2)c2cc4c5ccc(C(C)(C)C)cc5c5cc(C(C)(C)C)ccc5c4n2[B-]1(F)F)C=3`, for which the emission maximum by setting is: (in C1CCCCC1) 709 nm; (in C1CCOC1) 713 nm; (in CC#N) 712 nm; (in Cc1ccccc1) 713 nm; (in ClCCl) 716 nm.
With `F[B-]1(F)n2c(cc3c4ccccc4c4ccccc4c32)-c2ccc3ccccc3[n+]21`, under “in ClCCl”, the emission maximum turned out to be 585 nm.
Turning to `CN(C)c1ccc(C2=Cc3ccc4ccccc4[n+]3[B-](F)(F)O2)cc1`, the emission maximum was 540 nm (in C1CCOC1); 516 nm (in C1COCCO1); 478 nm (in CC1CCCCC1); 573 nm (in CC#N); 534 nm (in CCOC(C)=O); 509 nm (in CCOCC). The emission maximum (in CN(C)C=O) is reported as 581 nm, the emission maximum (in CO) stood at 564 nm, the emission maximum (in COC(C)=O) is given as 562 nm and the emission maximum (in ClC(Cl)Cl) is 521 nm.
For the molecule `O=c1ccc2cc3c(cc2o1)OCC3`, the emission maximum (in CC(C)O) is on record as 400 nm; the emission maximum (in CCO) amounted to 402 nm; the emission maximum (in CCOCC) was determined as 397 nm; the emission maximum (in CO) is reported as 405 nm; the emission maximum (in O) came to 410 nm.
For `Cc1ccc(N(c2ccc(C)cc2)c2ccc(-c3cc4c(cc(-c5ccc(N(c6ccc(C)cc6)c6ccc(C)cc6)cc5)c5nsnc54)c4nsnc34)cc2)cc1`, the emission maximum runs as follows: (in Cc1ccccc1) 659 nm; (in ClCCl) 683 nm.
`CCCCn1c2ccc3ccc4ccccc4c3c2c2c3c(ccc4ccccc43)ccc21` returned an emission maximum (in ClCCl) of 430 nm.
On to `Cn1c2ccc(S(=O)(=O)O)cc2c(=O)c2cc(S(=O)(=O)O)ccc21`, for which the emission maximum is, setting by setting: (in CS(C)=O) 424 nm; (in O) 433 nm.
For `CN(C)c1ccc(C2=Cc3cc(Cl)nc[n+]3[B-](F)(F)O2)cc1`, the emission maximum is, setting by setting: (in C1CCOC1) 532 nm; (in CC#N) 565 nm; (in CCCCCC) 456 nm; (in Cc1ccccc1) 494 nm; (in ClC(Cl)Cl) 512 nm; (in ClCCl) 529 nm.
Under “in CO”, `CCN(CC)c1ccc(C=Cc2nc3nc4ccccc4nc3s2)cc1` gave an emission maximum of 630 nm.
As for `Clc1nc(Nc2ccccc2)nc(Nc2ccc3c4cccc5cccc(c6cccc2c63)c54)n1`, the emission maximum is listed as 478 nm (in C1COCCO1), 477 nm (in CC#N), 476 nm (in CCCCOCCCC) and 475 nm (in CCOC(C)=O).
Under “in C1CCOC1”, `CC(C)(C)NC1=CC2=c3cc(NC(C)(C)C)c4nc(C(F)(F)C(F)(F)C(F)(F)F)nc5c(NC(C)(C)C)cc(c3c54)C3=CC(NC(C)(C)C)=C4N=C(C(F)(F)C(F)(F)C(F)(F)F)N=C1C4C32` (configuration not stated) gave an emission maximum of 666 nm.
`NC(=O)Cc1cccc2ccccc12`: the emission maximum is listed as 326 nm (in C1COCCO1); 325 nm (in CC#N); 325 nm (in CCO); 325 nm (in ClC(Cl)Cl); 324 nm (in O); 325 nm (in OCCO). The molecule also displayed an emission maximum (in [2H]O[2H]) of 324 nm.
`CC1(C)C(/C=C/C=C/C=C/C=C2/N(CCCCS(=O)(=O)[O-])c3ccc4ccccc4c3C2(C)C)=[N+](CCCCS(=O)(=O)[O-])c2ccc3ccccc3c21` had an emission maximum (in CO) of 817 nm.
Take `N#Cc1cccc(-c2nc(-c3ccccc3)c(-c3ccccc3)[nH]2)c1`: the emission maximum (in CO) is on record as 440 nm.
Consider `Cc1c(C)c(-c2cccnc2)c(C)c(C)c1B(c1c(C)c(C)c(-c2cccnc2)c(C)c1C)c1c(C)c(C)c(-c2cccnc2)c(C)c1C`, for which the emission maximum (in ClCCl) is recorded as 403 nm.
On to `CC1=C(c2ccc(N(c3ccccc3)c3ccccc3)cc2)C(C)=[N+]2C1=C(c1c(-c3ccccn3)nc3ccccn13)c1c(C)c(-c3ccc(N(c4ccccc4)c4ccccc4)cc3)c(C)n1[B-]2(F)F`, for which the emission maximum (in ClCCl) is 709 nm.
